Experiments:
[1] = Pharmacokinetics in mice, single gavage; format: in vivo, CD-1 mouse (male)
Description: Experimental purpose: To test the pharmacokinetics of the compound in mice
CD-1 mouse (male), vehicle (0.5% (w/v) methylcellulose 0.5% (v/v) Tween 80 aqueous solution), trifluoroacetate of compound 0027.
The vehicle was an aqueous solution of 0.5% (w/v) methylcellulose and 0.5% (v/v) Tween 80, and it was prepared according to the following procedure:
Formulation of Preparations for Intragastric Administration: […]
a. An appropriate amount of the test product was weighed and put into a glass bottle;
b. 70% volume of vehicle (0.5% (w/v) methyl cellulose 0.5% (v/v) Tween 80 aqueous solution) was added;
c. The preparation was stirred until it was visually homogeneous, and subjected to ultrasound in water bath as needed;
e. Make up the remaining volume of 0.5% methylcellulose+0.5% Tween 80, and the mixture was stirred until being visually homogeneous.
Animals in groups 1 and 2 were administrated 5 mg/mL and 30 mg/mL compounds by single gavage, with a dose volume of 10 mL/kg.
The body weight of the animals was weighed before administration, and the administration volume was calculated based on the body weight.
Whole blood samples (30 μL) were collected at the prescribed time (0.25, 0.5, 1, 2, 4, 6, 8, 24 h) through saphenous vein blood collection, and the actual blood collection time was recorded in the test record. The acceptable error of the collection time point was a time point within 1 hour of the administration ±1 minute, and the acceptable error of other time points is a theoretical time ±5%.
All blood samples were immediately transferred to labeled commercial centrifuge tubes containing K2-EDTA. After being collected, the blood samples were centrifuged at 3200 rpm for 10 minutes at 4° C. to aspirate the supernatant plasma, which was quickly placed in dry ice, kept at −20° C. or a lower temperature for LC-MS/MS analysis. The pharmacokinetic parameters were calculated.

[2] = tested on: wild-type FGFR; assay: Inhibitory activity of wild-type kinase in vitro (overall conclusion); format: biochemical, human; details: conclusion in words
Description: The IC50 value was determined using ^33P isotope-labeled kinase activity test (Reaction Biology Corp) to evaluate the inhibitory ability of the compounds to be tested on human FGFR4 and VEGFR2.
Buffer conditions: 20 mM 4-(2-hydroxyethyl)-1-piperazineethanesulfonic acid (Hepes) (pH 7.5), 10 mM MgCl2, 1 mM ethylene glycol-bis-(2-aminoethyl ether)tetra acetic acid (EGTA), 0.02% polyoxyethylene lauryl ether (Brij35), 0.02 mg/ml bovine serum albumin (BSA), 0.1 mM sodium vanadate (Na3VO4), 2 mM dithiothreitol (DTT), 1% DMSO.
Experimental steps: At room temperature, the compounds to be tested were dissolved in DMSO to prepare a 10 mM solution for use. The substrate was dissolved in the freshly prepared buffer, and the kinase to be tested was added thereto and mixed well. The DMSO solution in which the compounds to be tested were dissolved was added to the above-mentioned homogeneous reaction solution using acoustic technology (Echo 550). The compound concentration in the reaction solution is 10 μM, 3.33 μM, 1.11 μM, 0.370 μM, 0.123 μM, 41.2 nM, 13.7 nM, 4.57 nM, 1.52 nM, 0.508 nM, or 10 μM, 2.50 μM, 0.62 μM, 0.156 μM, 39.1 nM, 9.8 nM, 2.4 nM, 0.61 nM, 0.15 nM, 0.038 nM. […] After the filter paper was repeatedly washed with 0.75% phosphoric acid solution, the radioactivity of the phosphorylated substrate remaining on the filter paper was measured. […]

AUC0-inf ([1]; CD-1 mouse, gavage, 50 mpk): 95.847 µM·h
AUC0-last ([1]; CD-1 mouse, gavage, 50 mpk): 85.826 µM·h
MRT0-inf ([1]; CD-1 mouse, gavage, 50 mpk): 5.39 h
MRT0-last ([1]; CD-1 mouse, gavage, 50 mpk): 4.33 h
T1/2 ([1]; CD-1 mouse, gavage, 50 mpk): 2.46 h
Tmax ([1]; CD-1 mouse, gavage, 50 mpk): 1.00 h
AUC0-last ([1]; CD-1 mouse, gavage, 300 mpk): 699.413 µM·h
MRT0-last ([1]; CD-1 mouse, gavage, 300 mpk): 11.1 h
Tmax ([1]; CD-1 mouse, gavage, 300 mpk): 7.00 h
pharmacokinetic indexes in mice ([1]; conclusion in words): good pharmacokinetic indexes
inhibitory activity against wild-type FGFR [2]: good inhibitory activity
selectivity towards FGFR2 and FGFR3 compared to FGFR1 and FGFR4 [2]: relative high selectivity
SMILES: COc1cc(OC)c(Cl)c(-c2nc(-c3nc(-c4cn(C)nc4C)cnc3N)cn(C)c2=O)c1

From US11535609B2, “Pyrazine-2(1H)-ketone compound preparation method” (ZHANGZHOU PIEN TZE HUANG PHARMACEUTICAL CO., LTD., priority 2019, dated 2022)
